Legend:
CDC25C protein levels [1] = assay: Western blotting of CDC25C protein levels in A2058 cells; assay type: cell-based, human; settings: A2058, 100 μM, from 4 h up to 16 h
Protocol: (§1) To better investigate the effect of this inhibitor at the molecular level, we evaluated if the treatment of A2058 cells with 7 affected also the protein levels of the three CDC25 forms. […] On the other hand, the protein levels of CDC25B were unaffected by treatment of A2058 cells with 7 up to 16 h.
(§2) A2058 cells were seeded into 6-well-plates (3 × 10^5 cells/plate) for 24 h at 37°C and then treated at different times with 100 μM compound 7 or 0.5% DMSO. After treatment, cells were harvested, washed with PBS and then lysed in ice-cold modified radio immunoprecipitation assay (RIPA) buffer (50 mM Tris-HCl, pH 7.4, 150 mM NaCl, 1% Nonidet P-40, 0.25% sodium deoxycholate, 1 mM Na3VO4 and 1 mM NaF), supplemented with protease inhibitors and incubated for 30 min on ice. The supernatant obtained after centrifugation at 12,000 rpm for 30 min at 4°C constituted the total protein extract. The protein concentration was determined by the method of Bradford, using bovine serum albumin (BSA) as standard. Equal amounts of total protein extracts were used for Western blot analysis. […] Membranes were then analysed by an enhanced chemiluminescence reaction, using Super Signal West Pico kit (Pierce) according to manufacturer's instruction; signals were visualized by autoradiography.

CDC25B = molecular target: T1, CDC25B (Homo sapiens, UniProt P30305); assay: Residual phosphatase activity of recombinant CDC25B, fluorimetric OMFP assay; assay type: biochemical; settings: 10 nM CDC25B, 25 μM OMFP, read-out: CDC25B residual activity (%) in the presence of [inhibitor]
T1 construct: Recombinant forms of the catalytic domains of CDC25A, -B and -C were obtained through the vectors pET28a-CDC25A-cd, pET28a-CDC25B-cd and pET28a-CDC25C-cd; made in house
T1 sequence (P30305 431-538 limits assumed): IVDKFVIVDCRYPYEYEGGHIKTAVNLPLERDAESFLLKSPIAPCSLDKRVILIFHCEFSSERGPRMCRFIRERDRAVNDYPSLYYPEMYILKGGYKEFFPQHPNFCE
Protocol: Among the twenty-five structures identified from the multiple ligand-based chemoinformatic approach, eight compounds (2, 10, 12–14, and 16–18) were excluded from the analysis, because endowed with a strong fluorescent signal, which interfered with the emission wavelength of the synthetic substrate 3-O-methylfluorescein phosphate (OMFP) used in the fluorimetric assay. The inhibition of the phosphatase activity of CDC25B by the remaining seventeen analogs was evaluated in the presence of two different concentrations of these compounds (Table 2). […] For this reason, only one of these latter compounds, i.e. 3, was included in the following analysis.
The enzymatic activity of the catalytic domains of CDC25A, -B and -C were determined through a fluorimetric method, which monitored the dephosphorylation of the synthetic substrate OMFP, essentially as previously described. In steady-state enzyme kinetic studies, the residual phosphatase activity of purified recombinant CDC25B was measured at 30°C in the presence of different concentrations of the various inhibitors, using a computer-assisted Cary Eclipse spectrofluorimeter (Varian) equipped with an electronic temperature controller. Excitation and emission wavelengths were set at 485 and 530 nm, respectively; both excitation and emission slits were set at 10 nm. The reaction mixture contained 10 nM CDC25B and different concentrations of the various inhibitors in 500 μL final volume of 20 mM Tris-HCl, pH 7.8, 1 mM DTT. DMSO was used as vehicle control. The reaction started by the addition of 25 μM OMFP, and the formation of the fluorescent product o-methylfluorescein was monitored continuously. The rate of OMFP hydrolysis was expressed as arbitrary units per min (a.u./min). The comparison of the rates determined in the absence and in the presence of the various inhibitors allowed the calculation of the residual phosphatase activity, expressed as a percentage.

CDC25C protein levels [2] = assay: Western blotting of CDC25C protein levels in SAN cells; assay type: cell-based, human; settings: 100 μM, 1, 2 or 4 h
SAN cells = assay: MTT cell growth rate, SAN melanoma cells; assay type: cell-based, human; settings: 100 μM, 48 h, MTT
Protocol: The human melanoma cell line A2058, kindly provided by CEINGE (Naples, Italy), and SAN cells were derived from lymph nodal metastases and grown in DMEM and RPMI 1640, respectively, supplemented with 10% FBS, 2 mM L-glutamine, 100 IU/mL penicillin G, and 100 μg/mL streptomycin in humidified incubator at 37°C under 5% CO2 atmosphere. All cells were split and seeded every three days and used during the exponential phase of growth. Cell treatments were always carried after 24 h from plating.
The MTT assay was used to detect cell proliferation essentially as previously described. Briefly, A2058 and SAN cells were plated in 96-well microtiter plates (100 μL/well) at 4000 and 6000 cells/well, respectively. After 24-h seeding, cells were treated with the selected compounds added at 25, 50 or 100 μM concentration, or with 0.5% (v/v) DMSO as a vehicle control. After 24-h, 48-h or 72-h treatment, and upon the addition of 10 μL of MTT solution in the dark, the plate was incubated for 3 h at 37°C under CO2 atmosphere. After medium aspiration and solubilization of formazan crystals, absorbance was measured at 570 nm, using an ELISA plate reader (Bio-Rad, Milano, Italy).

CDC25A protein levels = assay: Western blotting of CDC25A protein levels in A2058 cells; assay type: cell-based, human; settings: A2058, 100 μM, 2-16 h
Protocol: as §1, §2

p53 protein levels = assay: Western blotting of p53 protein levels in A2058 cells; assay type: cell-based, human; settings: A2058, 100 μM, 8 h; significant after 16 h
Protocol: The molecular mechanisms that regulate the cytotoxic potential of 7 in melanoma cells were further investigated through the evaluation of the activation state of protein kinase B (pAkt), one of the key proteins involved in the control and regulation of cell survival. To this aim, the protein levels of pAkt have been analyzed after 2- and 4-h incubation of A2058 cells with 7. […] It is known that Akt regulates the process of cell survival by phosphorylating different substrates, directly or indirectly involved in the apoptotic program. One of these targets is p53, a protein with a tumor-suppressor activity that regulates the cell cycle, as well as the expression of several genes involved in the apoptosis. […]
A2058 cells were seeded into 6-well-plates (3 × 10^5 cells/plate) for 24 h at 37°C and then treated at different times with 100 μM compound 7 or 0.5% DMSO. […] The protein concentration was determined by the method of Bradford, using bovine serum albumin (BSA) as standard. […] Membranes were then analysed by an enhanced chemiluminescence reaction, using Super Signal West Pico kit (Pierce) according to manufacturer's instruction; signals were visualized by autoradiography.

remaining activity at 0.2 µM (CDC25B; 0.2 μM inhibitor): 44% | remaining activity at 1 µM (CDC25B; 1 μM inhibitor): 1%
SMILES: O=C(O)C1CCCCC1c1c2ccc(=O)cc-2oc2cc(O)ccc12 (stereo not shown) [Compound 7, 2-(6-hydroxy-3-oxo-3H-xanthen-9-yl)cyclohexanecarboxylic acid]
CDC25C protein levels (CDC25C protein levels [1]): progressive and significant reduction of CDC25C protein levels | CDC25C protein levels (CDC25C protein levels [2]): earlier decrease of CDC25C protein levels | cell growth rate (SAN cells): significant reduction of cell growth rate | CDC25A protein levels (CDC25A protein levels): early reduction of the CDC25A protein levels up to 4 h | p53 protein level (p53 protein levels): higher level of p53 compared to control

— PMC4741889, “Ligand-based chemoinformatic discovery of a novel small molecule inhibitor targeting CDC25 dual specificity phosphatases and displaying in vitro efficacy against melanoma cells” (Oncotarget, 2015)
